Like-named read-outs stand apart in the source and are kept apart here.
Columns and labels:
human FGFR1 = molecular target: T1, human FGFR1 (Homo sapiens, UniProt P11362); assay: 33P isotope-labeled kinase activity assay, wild type FGFR1; type: biochemical; conditions: ATP 5 μM
T1 construct: purchased Invitrogen PV3146
Procedure: (§1) IC50 was determined by using ^33P isotope-labeled kinase activity assay (Reaction Biology Corp), to evaluate the inhibitory ability of the test compound against human FGFR1 and FGFR4.
(§2) Buffer conditions: 20 mM Hepes (pH 7.5), 10 mM MgCl2, 1 mM EGTA, 0.02% Brij35, 0.02 mg/mL BSA, 0.1 mM Na3VO4, 2 mM DTT, and 1% DMSO.
(§3) Test procedures: At room temperature, the compound of Formula (I) was dissolved in DMSO to prepare a 10 mM solution. The substrate was dissolved in a freshly prepared buffer, and added with the test kinase and well mixed. By using acoustic technology (Echo 550), the solution of the test compound in DMSO was added into the above well-mixed reaction solution, to allow a compound concentration in reaction solution to be 10 μM, 3.33 μM, 1.11 μM, 0.370 μM, 0.123 μM, 41.2 nM, 13.7 nM, 4.57 nM, 1.52 nM, and 0.508 nM, or to be 10 μM, 2.50 μM, 0.62 μM, 0.156 μM, 39.1 nM, 9.8 nM, 2.4 nM, 0.61 nM, 0.15 nM, and 0.038 nM. After 15 minutes of incubation, ^33P-ATP (having an activity of 0.01 μCi/μl, and corresponding concentrations were given in Table 3) was added to start the reaction. Information about FGFR1, FGFR4 and their substrate's supplier, catalog number and lot number, as well as their concentration in the reaction solution, was listed in Table 3. […]

human FGFR4 = molecular target: T2, human FGFR4 (Homo sapiens, UniProt P22455); assay: 33P isotope-labeled kinase activity assay, wild type FGFR4; type: biochemical; conditions: ATP 100 μM
T2 construct: purchased Invitrogen P3054
Procedure: as §1, §2, §3

FGFR2 (N549H) = molecular target: T3, FGFR2 (N549H) (Homo sapiens, UniProt P21802, N549H); assay: 33P isotope-labeled kinase activity assay, mutant FGFR2 (N549H); type: biochemical; conditions: ATP 50 μM
T3 construct: purchased Millipore 14-742
Procedure: (§4) IC50 was determined by using ^33P isotope-labeled kinase activity assay (Reaction Biology Corp), to evaluate the inhibitory ability of the test compound against mutant FGFR.
(§5) Test procedures: At room temperature, test compound was dissolved in DMSO to prepare a 10 mM solution. The substrate was dissolved in a freshly prepared buffer, to which the test kinase was added and well mixed. By using acoustic technology (Echo 550), the solution of the test compound in DMSO was added into the well-mixed reaction solution, to allow a compound concentration in reaction solution to be 10 μM, 3.33 μM, 1.11 μM, 0.370 μM, 0.123 μM, 41.2 nM, 13.7 nM, 4.57 nM, 1.52 nM, 0.508 nM, or to be 10 μM, 2.50 μM, 0.62 μM, 0.156 μM, 39.1 nM, 9.8 nM, 2.4 nM, 0.61 nM, 0.15 nM, 0.038 nM. After 15 minutes of incubation, ^33P-ATP (having an activity of 0.01 μCi/μl, and corresponding concentrations were given in Table 5) was added to start the reaction. […] After washing the filter paper with a 0.75% phosphoric acid solution repeatedly, the radioactivity of the phosphorylated substrate left on the filter paper was measured. The kinase activity data was expressed by comparing the kinase activity of the test compound with that of blank group (containing DMSO only), and IC50 was determined by curve fitting with Prism4 software (GraphPad).

FGFR1 (V561M) = molecular target: T4, FGFR1 (V561M) (Homo sapiens, UniProt P11362, V561M); assay: 33P isotope-labeled kinase activity assay, mutant FGFR1 (V561M); type: biochemical; conditions: ATP 10 μM
T4 construct: purchased Signal Chem F04-13G
Procedure: as §4, §5

FGFR2 (E565G) = molecular target: T5, FGFR2 (E565G) (Homo sapiens, UniProt P21802, E565G); assay: 33P isotope-labeled kinase activity assay, mutant FGFR2 (E565G); type: biochemical; conditions: ATP 10 μM
T5 construct: purchased Signal Chem F05-12CG
Procedure: as §4, §5

FGFR2 (V564F) = molecular target: T6, FGFR2 (V564F) (Homo sapiens, UniProt P21802, V564F); assay: 33P isotope-labeled kinase activity assay, mutant FGFR2 (V564F); type: biochemical; conditions: ATP 20 μM
T6 construct: purchased SignalChem F05-12FG
Procedure: as §4, §5

FGFR3 (V555M) = molecular target: T7, FGFR3 (V555M) (Homo sapiens, UniProt P22607, V555M); assay: 33P isotope-labeled kinase activity assay, mutant FGFR3 (V555M); type: biochemical; conditions: ATP 20 μM
T7 construct: purchased SignalChem F06-12GG
Procedure: as §4, §5

FGFR3 (K650M) = molecular target: T8, FGFR3 (K650M) (Homo sapiens, UniProt P22607, K650M); assay: 33P isotope-labeled kinase activity assay, mutant FGFR3 (K650M); type: biochemical; conditions: ATP 2.5 μM
T8 construct: purchased Carna Biosciences Carna 08-199
Procedure: as §4, §5

FGFR4 (N535K) = molecular target: T9, FGFR4 (N535K) (Homo sapiens, UniProt P22455, N535K); assay: 33P isotope-labeled kinase activity assay, mutant FGFR4 (N535K); type: biochemical; conditions: ATP 2.5 μM
T9 construct: purchased Carna Biosciences Carna 08-524
Procedure: as §4, §5

FGFR4 (V550M) = molecular target: T10, FGFR4 (V550M) (Homo sapiens, UniProt P22455, V550M); assay: 33P isotope-labeled kinase activity assay, mutant FGFR4 (V550M); type: biochemical; conditions: ATP 2.5 μM
T10 construct: purchased Signal Chem F07-12DG
Procedure: as §4, §5

[1] = Pharmacokinetic investigation in dogs; type: in vivo; conditions: male, dog, plasma, beagle dogs; for AUC: read-out: Concentration integral AUC; for half-life: read-out: Half-life T1/2 (converted); for bioavailability: read-out: Bioavailability F
Text: The experiments aimed to test the pharmacokinetics of the test compound in beagle dogs.
Two beagle dogs were selected as one group. The compound was formulated into a designated preparation. The vehicle for intravenous injection was a mixture of DMSO: polyethylene glycol […] (PEG400): saline=10:40:50 (volume ratio) or a mixture of 10% DMSO/10% solutol/80% water. The vehicle for oral administration was a mixture of 0.5% methylcellulose (MC)+0.2% Tween. Each animal was given the preparation intragastrically at a predetermined dosage.
Whole blood samples, each about 500 μL, were collected from the cephalic vein or saphenous vein at […], namely 5 minutes, 15 minutes, 30 minutes, 1 hour, 2 hours, 4 hours, 6 hours, 8 hours, 12 hours and 24 hours after the animals were administered.
The […] was put into a centrifuge tube containing anticoagulant, and centrifuged at 3000 g for 10 min at 4° C. The plasma supernatant was frozen quickly on dry ice, and then kept in a frige at −70±10° C. until LC-MS/MS analysis was performed.
The plasma concentration of the compound was processed using a non-compartmental model by WinNonlin™ Version 6.3.0 (Pharsight, Mountain View, Calif.) pharmacokinetic software. The peak concentration (Cmax), time of maximum plasma concentration (Tmax), and time of the last quantifiable concentration, were determined directly from the curve of plasma concentration−time.
The following pharmacokinetic parameters: half-life time of elimination phase (T½), the mean residence time of the drug in the body from time 0 to the end timepoint (MRT0-last), the mean residence time of the drug in the body from time 0 to infinite time (MRT0-inf), area under the plasma concentration-time curve from time 0 to the end timepoint (AUC0-last), area under plasma concentration-time curve from time 0 to infinite time (AUC0-inf), were calculated using the log-linear trapezoidal method.
For the individual plasma concentration below the detection line, when it appeared before Tmax, it was calculated as 0; when it appeared after Tmax, it was directly excluded. All parameters and ratios were reported in the form of three significant figures.
In these experiments, the pharmacokinetic parameters were calculated based on the theoretical blood collection time and theoretical administration concentration in the embodiments.

[2] = Hygroscopicity by dynamic vapor sorption (DVS); type: physicochemical; conditions: 25° C. and 80% RH
Procedure: Dynamic Vapor Sorption (DVS)
Test condition: Approximately 10-15 mg of sample was used for DVS detection.
Equilibrating dm/dt: 0.01%/min: (time: 10 min-180 min (maximum))
RH (%) measuring gradient: 10%
Range of RH (%) measuring gradient: 0%-90%-0%
The evaluation criteria was as follows:
SMS DVS Advantage dynamic vapor adsorption instrument
10-15 mg of the crystal form B of the compound of Formula (I) was taken and placed on a DVS sample pan for test.

[3] = 1 mg/kg, intravenous administration (1 mpk)
[4] = 5 mg/kg, oral administration (5 mpk)

T8 sequence (P22607 23-806 K650M): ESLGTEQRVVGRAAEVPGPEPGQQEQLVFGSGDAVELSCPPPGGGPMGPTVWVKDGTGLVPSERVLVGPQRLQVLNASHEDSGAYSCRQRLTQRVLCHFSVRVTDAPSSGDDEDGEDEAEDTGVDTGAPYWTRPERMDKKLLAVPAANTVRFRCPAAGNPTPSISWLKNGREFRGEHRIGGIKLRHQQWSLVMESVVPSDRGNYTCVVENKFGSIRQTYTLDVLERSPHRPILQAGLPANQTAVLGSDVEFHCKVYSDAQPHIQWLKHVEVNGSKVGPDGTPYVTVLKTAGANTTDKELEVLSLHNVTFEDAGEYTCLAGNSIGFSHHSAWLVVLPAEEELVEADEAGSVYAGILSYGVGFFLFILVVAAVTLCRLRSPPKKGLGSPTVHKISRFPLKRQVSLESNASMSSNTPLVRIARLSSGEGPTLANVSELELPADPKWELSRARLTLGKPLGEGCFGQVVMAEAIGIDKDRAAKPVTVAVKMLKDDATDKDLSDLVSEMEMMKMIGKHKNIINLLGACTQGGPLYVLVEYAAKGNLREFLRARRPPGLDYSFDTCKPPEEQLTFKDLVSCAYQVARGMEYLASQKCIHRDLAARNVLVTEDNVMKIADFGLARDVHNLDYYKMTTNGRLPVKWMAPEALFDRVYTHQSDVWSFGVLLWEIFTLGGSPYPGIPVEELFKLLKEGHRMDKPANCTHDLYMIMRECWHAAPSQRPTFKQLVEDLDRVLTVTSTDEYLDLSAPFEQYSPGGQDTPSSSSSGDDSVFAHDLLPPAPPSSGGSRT
T2 sequence (P22455 22-802): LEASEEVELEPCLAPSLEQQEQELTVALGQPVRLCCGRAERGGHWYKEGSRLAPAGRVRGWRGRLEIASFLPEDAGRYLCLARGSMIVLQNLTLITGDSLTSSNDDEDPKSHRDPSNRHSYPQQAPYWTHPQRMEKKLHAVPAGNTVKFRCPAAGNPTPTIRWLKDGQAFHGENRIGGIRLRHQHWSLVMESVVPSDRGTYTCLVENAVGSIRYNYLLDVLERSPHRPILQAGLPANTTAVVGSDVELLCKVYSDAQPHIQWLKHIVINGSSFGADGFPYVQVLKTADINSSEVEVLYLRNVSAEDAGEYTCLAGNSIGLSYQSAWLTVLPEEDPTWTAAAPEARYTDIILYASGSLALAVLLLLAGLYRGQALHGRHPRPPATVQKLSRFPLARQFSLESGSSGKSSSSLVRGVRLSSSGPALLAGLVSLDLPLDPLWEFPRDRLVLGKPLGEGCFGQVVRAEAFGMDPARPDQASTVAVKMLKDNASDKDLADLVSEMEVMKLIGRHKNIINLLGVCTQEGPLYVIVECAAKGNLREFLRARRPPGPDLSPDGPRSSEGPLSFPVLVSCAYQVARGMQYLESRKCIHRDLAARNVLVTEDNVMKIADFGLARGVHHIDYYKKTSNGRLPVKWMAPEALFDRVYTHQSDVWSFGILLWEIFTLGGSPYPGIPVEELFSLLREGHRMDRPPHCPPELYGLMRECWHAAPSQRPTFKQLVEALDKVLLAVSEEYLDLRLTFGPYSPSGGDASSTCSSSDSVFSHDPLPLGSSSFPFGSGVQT
T1 sequence (P11362 22-822): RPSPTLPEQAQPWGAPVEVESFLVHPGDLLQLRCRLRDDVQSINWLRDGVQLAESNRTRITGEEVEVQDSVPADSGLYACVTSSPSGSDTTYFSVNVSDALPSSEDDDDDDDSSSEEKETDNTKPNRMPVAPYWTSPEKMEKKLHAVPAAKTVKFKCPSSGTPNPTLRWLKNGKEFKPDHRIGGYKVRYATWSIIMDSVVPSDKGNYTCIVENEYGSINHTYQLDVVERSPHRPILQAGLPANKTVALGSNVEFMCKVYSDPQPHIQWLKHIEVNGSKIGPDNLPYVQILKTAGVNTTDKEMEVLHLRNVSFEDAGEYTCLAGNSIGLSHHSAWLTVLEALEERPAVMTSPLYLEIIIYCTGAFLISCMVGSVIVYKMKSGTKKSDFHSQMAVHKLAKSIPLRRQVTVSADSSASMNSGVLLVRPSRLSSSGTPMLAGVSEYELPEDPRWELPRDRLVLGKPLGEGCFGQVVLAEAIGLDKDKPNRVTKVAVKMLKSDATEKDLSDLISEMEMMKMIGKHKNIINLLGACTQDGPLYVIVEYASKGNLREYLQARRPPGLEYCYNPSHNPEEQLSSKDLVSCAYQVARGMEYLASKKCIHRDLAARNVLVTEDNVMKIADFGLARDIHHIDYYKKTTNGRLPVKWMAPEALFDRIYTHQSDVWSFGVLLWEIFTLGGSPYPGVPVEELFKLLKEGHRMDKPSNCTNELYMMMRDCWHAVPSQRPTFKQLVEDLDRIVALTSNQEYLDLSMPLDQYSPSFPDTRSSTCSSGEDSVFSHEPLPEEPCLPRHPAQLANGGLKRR
T4 sequence (P11362 22-822 V561M): as the sequence (P11362 22-822) above, with V540M counted along it
T3 sequence (P21802 22-821 N549H): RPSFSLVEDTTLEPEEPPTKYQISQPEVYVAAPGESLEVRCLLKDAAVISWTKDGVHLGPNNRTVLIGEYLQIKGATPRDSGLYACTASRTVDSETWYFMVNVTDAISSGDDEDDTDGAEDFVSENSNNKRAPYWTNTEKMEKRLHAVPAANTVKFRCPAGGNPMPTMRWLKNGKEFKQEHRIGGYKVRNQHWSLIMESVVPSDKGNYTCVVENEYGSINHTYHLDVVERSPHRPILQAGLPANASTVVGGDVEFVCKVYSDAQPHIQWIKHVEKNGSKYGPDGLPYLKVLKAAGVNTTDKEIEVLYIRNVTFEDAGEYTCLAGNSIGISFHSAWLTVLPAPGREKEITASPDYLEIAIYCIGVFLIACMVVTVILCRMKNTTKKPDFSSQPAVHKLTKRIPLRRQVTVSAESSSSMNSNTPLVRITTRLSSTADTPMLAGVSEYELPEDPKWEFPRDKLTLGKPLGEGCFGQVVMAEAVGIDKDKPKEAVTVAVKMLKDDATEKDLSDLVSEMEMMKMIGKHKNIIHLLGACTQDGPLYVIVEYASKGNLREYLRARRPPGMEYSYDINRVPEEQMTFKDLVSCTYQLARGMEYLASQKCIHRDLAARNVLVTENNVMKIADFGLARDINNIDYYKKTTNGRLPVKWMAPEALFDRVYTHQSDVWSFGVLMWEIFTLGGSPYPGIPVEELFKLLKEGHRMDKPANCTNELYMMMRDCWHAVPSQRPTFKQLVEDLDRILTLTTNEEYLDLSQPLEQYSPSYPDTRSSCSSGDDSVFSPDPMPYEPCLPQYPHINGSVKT
T7 sequence (P22607 23-806 V555M): as the sequence (P22607 23-806 K650M) above, with V533M, M628K counted along it
T5 sequence (P21802 22-821 E565G): as the sequence (P21802 22-821 N549H) above, with H528N, E544G counted along it
T6 sequence (P21802 22-821 V564F): as the sequence (P21802 22-821 N549H) above, with H528N, V543F counted along it
T9 sequence (P22455 22-802 N535K): as the sequence (P22455 22-802) above, with N514K counted along it
T10 sequence (P22455 22-802 V550M): as the sequence (P22455 22-802) above, with V529M counted along it

SMILES | IC50 (human FGFR1) [nM] | IC50 (human FGFR4) [nM] | IC50 (FGFR2 (N549H)) [nM] | IC50 (FGFR1 (V561M)) [nM] | IC50 (FGFR2 (E565G)) [nM] | IC50 (FGFR2 (V564F)) [nM] | IC50 (FGFR3 (V555M)) [nM] | IC50 (FGFR3 (K650M)) [nM] | IC50 (FGFR4 (N535K)) [nM] | IC50 (FGFR4 (V550M)) [nM] | clearance [1, 3] [mL/min/kg] | AUC [1, 3] [µM·h] | half-life [1, 3] [h] | bioavailability [1, 4] [%] | AUC [1, 4] [µM·h] | hygroscopicity classification [2] | weight gain caused by moisture-adsorption ΔW [2] [%]
C=CC(=O)N1CC[C@H](c2cc(-c3cc4cc(C)cc(OC)c4s3)c3c(N)ncnn23)C1 [compound represented by Formula (I)] | 0.2 | 0.2 | 0.5 | 38 | 0.1 | 33 | 7.3 | 0.2 | 34 | 5.6 | 9.4 | 4.13 | 3 | 88 | 18.2 |  | 
C=CC(=O)N1CC[C@H](c2cc(-c3cc4cc(C)cc(OC)c4s3)c3c(N)ncnn23)C1 |  |  |  |  |  |  |  |  |  |  |  |  |  |  |  | no or almost no hygroscopicity (weight gain caused by moisture is less than 0.2%.) | 0.1928
C=CC(=O)N1CC[C@H](n2nc(C#Cc3cc(OC)cc(OC)c3)c3c(N)ncnc32)C1 [reference compound 1, reference compound] |  |  |  |  |  |  |  |  |  |  | 17 |  | 0.8 | 41 |  |  | 

— patent US12398138B2, “FGFR inhibitor compound in solid form and preparation method therefor” (CSPC ZHONGQI PHARMACEUTICAL TECHNOLOGY (SHIJIAZHUANG) CO., …, priority 2019, dated 2025)
